According to patent US12162867B2, “Inhibitors of RNA helicase DHX9 and uses thereof” (ACCENT THERAPEUTICS, INC., priority 2022, dated 2024):
Like-named read-outs stand apart in the source and are kept apart here.

Tests used:
Assay type in all cases: cell-based
LS411N cells = experiment: DHX9 cellular proliferation assay (CellTiter-Glo), LS411N (CRC-MSI); details: Homo sapiens, LS-411N, read-out: LS411N (CRC-MSI-H) Antiproliferative IC50
NCI-H747 cells = experiment: DHX9 cellular proliferation assay (CellTiter-Glo), NCI-H747 (CRC-MSS); details: Homo sapiens
[1] = tested on: circBRIP1 in HCT116 cells; experiment: DHX9 circBRIP1 cellular target engagement SYBR Green assay (qPCR); details: Homo sapiens, HCT-116, circBRIP1, HCT116 cells, read-out: DHX9 Cellular Target Engagement EC50
[2] = NCI-H747, NCI-H747, performed at Pharmaron, read-out: H747 (CRC-MSS) Antiproliferative IC50
[3] = LS411N, CRC-MSI-H, performed at Pharmaron
[4] = NCI-H747, NCI-H747, CRC-MSS, performed at Pharmaron, read-out: H747 (CRC-MSS) Antiproliferative IC50

SMILES	IC50 (LS411N cells) [nM]	IC50 (NCI-H747 cells; NCI-H747, read-out: H747 (CRC-MSS) Antiproliferative IC50) [nM]	EC50 ([1]; SyBr assay (marked ^+)) [nM]	IC50 (LS411N cells; LS411N, performed at Pharmaron) [nM]	IC50 (NCI-H747 cells; [2]) [nM]	EC50 ([1]; ^+ SyBr assay was used) [nM]	IC50 (LS411N cells; [3]) [nM]	IC50 (NCI-H747 cells; [4]) [nM]
CS(=O)(=O)Nc1cc(Br)cc(NC(=O)c2cnn(-c3ccccn3)c2)c1 [Example 36, N-(3-bromo-5-(methylsulfonamido)phenyl)-1-(pyridin-2-yl)-1H-pyrazole-4-carboxamide]	1080	> 10000	313	–	–	–	–	–
COc1cnc(-n2cc(C(=O)Nc3cc(Cl)cc(NS(C)(=O)=O)c3)cc2C)nc1 [Example 441]	–	–	–	130	> 10000	123	–	–
CS(=O)(=O)Nc1cc(Cl)cc(NC(=O)c2cnn(-c3ccc(N4CC5CCC(C4)O5)cn3)c2)c1 [Example 191]	–	–	432	–	–	–	> 10000	> 10000
CS(=O)(=O)Nc1cc(Cl)cc(NC(=O)c2cc(-c3ncccc3OCc3ccccc3)cs2)c1 [Example 29]	–	–	51.9	–	–	–	124	9280
CCS(=O)(=O)Nc1cc(Cl)cc(NC(=O)c2cc(-c3ncccn3)c(C)s2)c1 [Example 27]	–	–	49.7	–	–	–	117	> 10000
COCc1ccc(-c2cc(C(=O)Nc3cc(Cl)cc(NS(C)(=O)=O)c3)cn2C)nc1 [Example 574]	–	–	–	92.2	> 10000	39.5	–	–
Cc1cc(C(=O)Nc2cc(Cl)cc(NS(C)(=O)=O)c2)cn1-c1ccc(N2CCOCC2)cn1 [Example 93]	–	–	30	–	–	–	253	> 10000
Cc1cc(C(=O)Nc2cc(Cl)cc(NS(C)(=O)=O)c2)cn1-c1ncccc1OCc1nccs1 [Example 280]	–	–	74.2	–	–	–	116	> 10000
Cn1cc(C(=O)Nc2cc(Cl)cc(NS(C)(=O)=O)c2)cc1-c1ncccc1OCc1cncc(F)c1 [Example 174, N-(3-chloro-5-(methylsulfonamido)phenyl)-5-(3-((5-fluoropyridin-3-yl)methoxy)pyridin-2-yl)-1-methyl-1H-pyrrole-3-carboxamide]	–	–	7	–	–	–	33.3	> 10000
Cc1cccnc1-n1cc(C(=O)Nc2cc(Br)cc(NS(C)(=O)=O)c2)cn1 [Example 49]	–	–	434	–	–	–	901	> 10000
CS(=O)(=O)Nc1cc(Cl)cc(NC(=O)c2cnn(-c3ncccc3OCc3cncc(F)c3)c2)c1 [Example 186]	–	–	161	–	–	–	2440	> 10000
CS(=O)(=O)Nc1cc(Cl)cc(NC(=O)c2cc(CO)n(-c3ncccc3OCc3cncc(F)c3)c2)c1 [Example 723]	–	–	–	733	> 10000	73.5	–	–
COCc1ccc(-n2cc(C(=O)Nc3cc(Cl)cc(NS(C)(=O)=O)c3)cc2C)nc1 [Example 447]	–	–	–	110	> 10000	27.8	–	–
CS(=O)(=O)Nc1cc(Cl)cc(NC(=O)c2cc(-c3ncccc3COc3cc(F)cc(F)c3)cs2)c1 [Example 228]	–	–	48.3	–	–	–	117	> 10000
CC(O)c1cc(C(=O)Nc2cc(Cl)cc(NS(C)(=O)=O)c2)cn1-c1ccccn1 (stereo not drawn) [Example 287]	–	–	232	–	–	–	165	> 10000
Cc1cc(C(=O)Nc2cc(Cl)cc(NS(C)(=O)=O)c2)cn1-c1ncccc1OCC1CC1 [Example 713]	–	–	–	105	> 10000	105	–	–
CCOc1ccc(-c2csc(C(=O)Nc3cc(Cl)cc(NS(C)(=O)=O)c3)c2)nc1 [Example 339]	–	–	91.8	–	–	–	341	5690
CS(=O)(=O)Nc1cc(Cl)cc(NC(=O)c2cc(-c3ccccc3)c(CO)s2)c1 [Example 120, N-(3-chloro-5-(methylsulfonamido)phenyl)-5-(hydroxymethyl)-4-phenylthiophene-2-carboxamide]	–	–	144	–	–	–	1070	6980
CS(=O)(=O)Nc1cc(Cl)cc(NC(=O)c2cc(-c3ccccc3OCc3ccccc3)cs2)c1 [Example 111]	–	–	161	–	–	–	318	> 10000

SMILES	IC50 (LS411N cells) [nM]	IC50 (NCI-H747 cells; NCI-H747, read-out: H747 (CRC-MSS) Antiproliferative IC50) [nM]	EC50 ([1]; SyBr assay (marked ^+)) [nM]	IC50 (LS411N cells; LS411N, performed at Pharmaron) [nM]	IC50 (NCI-H747 cells; [2]) [nM]	EC50 ([1]; ^+ SyBr assay was used) [nM]	IC50 (LS411N cells; [3]) [nM]	IC50 (NCI-H747 cells; [4]) [nM]
CS(=O)(=O)Nc1cc(Br)cc(NC(=O)c2cnn(-c3ccccc3OCc3ccccc3)c2)c1 [Example 51]	–	–	188	–	–	–	259	6470
CCOc1cnn(-c2cc(C(=O)Nc3cc(Cl)cc(NS(C)(=O)=O)c3)sc2C)c1 [Example 438]	–	–	–	508	> 10000	91.2	–	–
Cc1sc(C(=O)Nc2cc(Br)cc(NS(C)(=O)=O)c2)cc1-c1ccccn1 [Example 23]	–	–	54.2	–	–	–	53.1	> 10000
Cc1sc(C(=O)Nc2cc(Br)cc(NS(C)(=O)=O)c2)cc1-c1ccccc1O [Example 20]	–	–	100	–	–	–	609	7220
CNC(=O)c1sc(C(=O)Nc2cc(Cl)cc(NS(C)(=O)=O)c2)cc1-c1ncccc1OCc1ccccc1 [Example 212]	–	–	32.6	–	–	–	202	> 10000
CS(=O)(=O)Nc1cc(Br)cc(NC(=O)c2cc(-c3ccccc3O)cs2)c1 [Example 21]	–	–	260	–	–	–	791	> 10000
Cc1cc(C(=O)Nc2cc(Cl)cc(NS(C)(=O)=O)c2)cn1-c1ccccc1 [Example 129, N-(3-chloro-5-(methylsulfonamido)phenyl)-5-methyl-1-phenyl-1H-pyrrole-3-carboxamide]	–	–	333	–	–	–	1090	> 10000
Cc1cc(C(=O)Nc2cc(Cl)cc(NS(C)(=O)=O)c2)cn1-c1ccc(N2CC3CC3C2)cn1 (stereo not drawn) [Example 411]	–	–	–	142	> 10000	74.1	–	–
COc1cnn(-c2cc(C(=O)Nc3cc(Cl)cc(NS(C)(=O)=O)c3)sc2C)c1 [Example 436]	–	–	–	272	> 10000	89.5	–	–
CCOc1cnc(-c2cc(C(=O)Nc3cc(Cl)cc(NS(C)(=O)=O)c3)cn2C)nc1 [Example 172]	–	–	135	–	–	–	237	6890
CS(=O)(=O)Nc1cc(Br)cc(NC(=O)c2cc(-c3ncccc3OCc3ccccc3)cs2)c1 [Example 32]	–	–	48.2	–	–	–	101	> 10000
Cc1cccnc1-c1csc(C(=O)Nc2cc(Br)cc(NS(C)(=O)=O)c2)c1 [Example 33]	–	–	21.5	–	–	–	116	> 10000
CCS(=O)(=O)Nc1cc(Cl)cc(NC(=O)c2cc(-c3ncccc3C)cs2)c1 [Example 224]	–	–	55.8	–	–	–	122	> 10000
CS(=O)(=O)Nc1cc(Cl)cc(NC(=O)c2cnn(-c3c(F)cccc3OCc3cncc(F)c3)c2)c1 [Example 718]	–	–	–	114	> 10000	137	–	–
Cc1sc(C(=O)Nc2cc(Cl)cc(NS(C)(=O)=O)c2)cc1-c1ncc(F)cn1 [Example 336]	–	–	84.6	–	–	–	146	> 10000
CS(=O)(=O)Nc1cc(Cl)cc(NC(=O)c2cc(-c3ncccn3)cs2)c1 [Example 26]	–	–	60.9	–	–	–	217	> 10000
Cc1cccnc1-c1cc(C(=O)Nc2cc(Cl)cc(NS(C)(=O)=O)c2)cn1CC(F)F [Example 143, N-(3-chloro-5-(methylsulfonamido)phenyl)-1-(2,2-difluoroethyl)-5-(3-methylpyridin-2-yl)-1H-pyrrole-3-carboxamide]	–	–	516	–	–	–	1090	8540
CS(=O)(=O)Nc1cc(Cl)cc(NC(=O)c2cc(-c3ncccc3Oc3ncccn3)cs2)c1 [Example 178, N-(3-chloro-5-(methylsulfonamido)phenyl)-4-(3-(pyrimidin-2-yloxy)pyridin-2-yl)thiophene-2-carboxamide]	–	–	101	–	–	–	81.1	> 10000
Cc1cc(C(=O)Nc2cc(Cl)cc(NS(C)(=O)=O)c2)cn1-c1ccc(N2CCN(C)C(=O)C2)cn1 [Example 94]	–	–	292	–	–	–	3200	> 10000
